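These data come from cells grown in 96-well plates and exposed to compound for 48 hours at five concentrations. GI50: concentration for 50% inhibition of growth.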 Calls of active or inactive are those of the source. Cut-off read from the data, not from the text of the source: active = GI50 up to about 1.1 µM and inactive = higher.
How the values were obtained:
Experiment in all cases: DTP human tumour cell line panel, 48 h
UO-31 = tested on: UO-31
TK-10 = tested on: TK-10
SNB-75 = tested on: SNB-75
SF-268 = tested on: SF-268
CAKI-1 = tested on: CAKI-1
Hs-578T = tested on: Hs-578T
EKVX = tested on: EKVX
COLO 205 = tested on: COLO 205
OVCAR-8 = tested on: OVCAR-8
PC-3 = tested on: PC-3
HL-60 = tested on: HL-60
NCI-H226 = tested on: NCI-H226
HCC 2998 = tested on: HCC 2998
LOX IMVI = tested on: LOX IMVI
RPMI-8226 = tested on: RPMI-8226
RXF 393 = tested on: RXF 393
UACC-62 = tested on: UACC-62
SK-MEL-5 = tested on: SK-MEL-5
IGROV-1 = tested on: IGROV-1

Measured: GI50

COC(=O)CN1Cc2cc(C)cc(c2O)CN(CC(=O)OC)Cc2cc(C)cc(c2O)CN(CC(=O)OC)Cc2cc(C)cc(c2O)CN(CC(=O)OC)Cc2cc(C)cc(c2O)C1
inactive: UO-31 8.89 µM | TK-10 15.4 µM | SNB-75 12.4 µM | SF-268 9.89 µM | CAKI-1 24.2 µM | Hs-578T 38.4 µM | EKVX 9.06 µM | COLO 205 13.7 µM | OVCAR-8 11 µM | PC-3 18.5 µM | HL-60 3.03 µM | NCI-H226 8.04 µM | HCC 2998 13.6 µM | LOX IMVI 7.33 µM | RPMI-8226 39 µM | RXF 393 4.19 µM | UACC-62 39.6 µM | SK-MEL-5 19.9 µM | IGROV-1 19.7 µM

CCOC(=O)C(NC(=O)c1ccccc1)(Nc1ccc(S(=O)(=O)Nc2ccc(OC)nn2)cc1)C(F)(F)F (stereo not given)
inactive: UO-31 > 100 µM | TK-10 > 100 µM | SNB-75 > 100 µM | SF-268 > 100 µM | CAKI-1 > 100 µM | Hs-578T > 100 µM | EKVX > 100 µM | COLO 205 > 100 µM | OVCAR-8 > 100 µM | PC-3 > 100 µM | HL-60 > 100 µM | NCI-H226 > 100 µM | HCC 2998 > 100 µM | LOX IMVI > 100 µM | RPMI-8226 > 100 µM | RXF 393 > 100 µM | UACC-62 > 100 µM | SK-MEL-5 > 100 µM | IGROV-1 > 100 µM

Clc1ccc(C2c3ccccc3-c3nc4ccccc4n32)cc1 (stereo not given)
inactive: UO-31 4.05 µM | TK-10 > 66.7 µM | SNB-75 24.3 µM | SF-268 25 µM | CAKI-1 37.1 µM | Hs-578T 4.92 µM | EKVX 16.5 µM | COLO 205 > 61.2 µM | OVCAR-8 18.2 µM | PC-3 19.4 µM | HL-60 3.65 µM | NCI-H226 > 42.5 µM | HCC 2998 18.9 µM | LOX IMVI 19.7 µM | RPMI-8226 9.75 µM | RXF 393 5.26 µM | UACC-62 26.3 µM | SK-MEL-5 27.4 µM | IGROV-1 12.6 µM

CC(=O)OCC1OC(n2c(-c3ccc(C)cc3)cc(-c3ccccc3)c(C#N)c2=S)C(OC(C)=O)C(OC(C)=O)C1OC(C)=O (stereo not given)
inactive: UO-31 > 100 µM | TK-10 > 100 µM | SNB-75 32.7 µM | SF-268 > 100 µM | CAKI-1 > 100 µM | Hs-578T 65.2 µM | EKVX > 100 µM | COLO 205 > 100 µM | OVCAR-8 > 100 µM | PC-3 > 100 µM | HL-60 > 100 µM | NCI-H226 > 100 µM | HCC 2998 > 100 µM | LOX IMVI > 100 µM | RPMI-8226 > 100 µM | RXF 393 > 100 µM | UACC-62 > 100 µM | SK-MEL-5 37.8 µM | IGROV-1 > 100 µM

Cc1ccc(C(=O)/C=C2/Nc3ccc([N+](=O)[O-])cc3N/C2=C/C(=O)c2ccc(C)cc2)cc1
inactive: UO-31 > 100 µM | TK-10 > 100 µM | SNB-75 10.6 µM | SF-268 52.4 µM | CAKI-1 87.5 µM | Hs-578T 23.2 µM | EKVX 61.4 µM | COLO 205 > 100 µM | OVCAR-8 36 µM | PC-3 92.3 µM | HL-60 34.7 µM | NCI-H226 > 100 µM | HCC 2998 > 100 µM | LOX IMVI > 100 µM | RPMI-8226 > 100 µM | RXF 393 36.6 µM | UACC-62 24.7 µM | SK-MEL-5 > 100 µM | IGROV-1 42.5 µM

CSc1c(C#N)c(S)[nH]c(=O)c1C#N
inactive: UO-31 18.7 µM | TK-10 23.2 µM | SNB-75 32.1 µM | SF-268 32.7 µM | CAKI-1 > 100 µM | Hs-578T 24.2 µM | EKVX 29.6 µM | COLO 205 31.9 µM | OVCAR-8 47.2 µM | PC-3 29.4 µM | HL-60 1.85 µM | NCI-H226 30.3 µM | HCC 2998 36.2 µM | LOX IMVI 37.1 µM | RPMI-8226 3.89 µM | RXF 393 26.1 µM | UACC-62 21.2 µM | SK-MEL-5 9.91 µM | IGROV-1 22.8 µM

CC1=NC(C)(COC(=O)C2(C)NC(C)(CO)CO2)COC1=O (stereo not given)
inactive: UO-31 > 100 µM | TK-10 > 75 µM | SNB-75 > 100 µM | SF-268 > 100 µM | CAKI-1 > 100 µM | Hs-578T > 100 µM | EKVX > 100 µM | COLO 205 > 100 µM | OVCAR-8 > 100 µM | PC-3 > 100 µM | HL-60 > 100 µM | NCI-H226 > 100 µM | HCC 2998 > 100 µM | LOX IMVI > 100 µM | RPMI-8226 > 100 µM | RXF 393 > 100 µM | UACC-62 > 100 µM | SK-MEL-5 > 100 µM | IGROV-1 > 100 µM

COc1ccccc1/[N+]([O-])=C/c1ccccc1OC(=S)S
inactive: UO-31 31 µM | TK-10 > 100 µM | SNB-75 25.8 µM | SF-268 33.7 µM | CAKI-1 58.9 µM | Hs-578T 73.6 µM | EKVX 30.4 µM | COLO 205 27.4 µM | OVCAR-8 21.7 µM | PC-3 34 µM | HL-60 25.8 µM | NCI-H226 28.8 µM | HCC 2998 14.7 µM | LOX IMVI 28.1 µM | RPMI-8226 21.8 µM | RXF 393 33.7 µM | UACC-62 32.9 µM | SK-MEL-5 34.2 µM | IGROV-1 19.6 µM

O=c1[nH]c(=O)c2c3n(cc2[nH]1)CCCCC3
inactive: UO-31 > 100 µM | TK-10 17.5 µM | SNB-75 > 100 µM | SF-268 > 100 µM | CAKI-1 > 100 µM | Hs-578T > 100 µM | EKVX > 100 µM | COLO 205 > 100 µM | OVCAR-8 > 100 µM | PC-3 > 100 µM | HL-60 > 100 µM | NCI-H226 > 100 µM | HCC 2998 > 100 µM | LOX IMVI > 100 µM | RPMI-8226 > 100 µM | RXF 393 > 100 µM | UACC-62 > 100 µM | SK-MEL-5 > 100 µM | IGROV-1 > 100 µM

Fc1ccc(/C=C2\COCC3=C2NC(=S)NC3c2ccc(F)cc2)cc1 (stereo not given)
inactive: UO-31 17.7 µM | TK-10 22.1 µM | SNB-75 22.2 µM | SF-268 17.7 µM | CAKI-1 31.1 µM | Hs-578T 24.8 µM | EKVX 20 µM | COLO 205 20.2 µM | OVCAR-8 15.2 µM | PC-3 17.3 µM | HL-60 10.5 µM | NCI-H226 21.1 µM | HCC 2998 18.5 µM | LOX IMVI 19.9 µM | RPMI-8226 16.5 µM | RXF 393 16.6 µM | UACC-62 17.2 µM | SK-MEL-5 19.4 µM | IGROV-1 24.9 µM

Reference: ChEMBL document CHEMBL1201862, “PubChem BioAssay data set” (2004)
